Results as given in patent EP4722212A1, “NOVEL COMPOUND FOR INHIBITING PROTEIN KINASES AND PHARMACEUTICAL COMPOSITION COMPRISING SAME” (Magicbullettherapeutics Co., Ltd., priority 2023, dated 2024).
Like-named read-outs stand apart in the source and are kept apart here.

Assays:
Experiment in all cases: Kinase panel
Type in all cases: biochemical
[1] = target: TAOK1 (Homo sapiens, UniProt Q7L7X3); settings: TAOK1, 1 µM; read-out: residual enzyme activity
Experimental: (§1) To measure the inhibitory activity of protein kinases against the compounds of the present invention, a biochemical assay was performed using a full kinase panel. The inhibitory efficacy of kinases was measured when Example compounds 8 and 51 were treated at a single concentration of 1 µM, and residual enzyme activity values were calculated. Kinases were identified when the calculated residual enzyme activity values were 40% or less, i.e., inhibited by 60% or more.

[2] = target: CAMKK1 (Homo sapiens, UniProt Q8N5S9); settings: CAMKK1, 1 µM; read-out: residual enzyme activity
Experimental: as §1

[3] = target: AURORA C (Homo sapiens, UniProt Q9UQB9); settings: read-out: residual enzyme activity
Experimental: as §1

[4] = target: ALK2/ACVR1 (Homo sapiens, UniProt Q04771); settings: ALK2/ACVR1, 1 µM; read-out: residual enzyme activity
Experimental: as §1

[5] = target: PIM2 (Homo sapiens, UniProt Q9P1W9); settings: PIM2, 1 µM; read-out: residual enzyme activity
Experimental: as §1

[6] = target: ALK1/ACVRL1 (Homo sapiens, UniProt P37023); settings: ALK1/ACVRL1, 1 µM; read-out: residual enzyme activity
Experimental: as §1

[7] = target: PKCG (Homo sapiens, UniProt P05129); settings: read-out: residual enzyme activity
Experimental: as §1

[8] = target: STK38/NDR1 (Homo sapiens, UniProt Q15208); settings: STK38/NDR1, 1 µM; read-out: residual enzyme activity
Experimental: as §1

[9] = target: MYO3B (Homo sapiens, UniProt Q8WXR4); settings: read-out: residual enzyme activity
Experimental: as §1

[10] = target: PIM3 (Homo sapiens, UniProt Q86V86); settings: PIM3, 1 µM; read-out: residual enzyme activity
Experimental: as §1

[11] = target: ERBB4/HER4 (Homo sapiens, UniProt Q15303); settings: ERBB4/HER4, 1 µM; read-out: residual enzyme activity
Experimental: as §1

[12] = target: NEK9 (Homo sapiens, UniProt Q8TD19); settings: NEK9, 1 µM; read-out: residual enzyme activity
Experimental: as §1

[13] = target: RSK2 (Homo sapiens, UniProt P51812); settings: RSK2, 1 µM; read-out: residual enzyme activity
Experimental: as §1

[14] = target: FMS (Homo sapiens, UniProt P07333); settings: read-out: residual enzyme activity
Experimental: as §1

[15] = target: EPHAS (Homo sapiens, UniProt P29322); settings: read-out: residual enzyme activity
Experimental: as §1

[16] = target: NIM1 (Homo sapiens, UniProt Q8IY84); settings: NIM1, 1 µM; read-out: residual enzyme activity
Experimental: as §1

[17] = target: ERK5/MAPK7 (Homo sapiens, UniProt Q13164); settings: ERK5/MAPK7, 1 µM; read-out: residual enzyme activity
Experimental: as §1

[18] = target: JAK1 (Homo sapiens, UniProt P23458); settings: JAK1, 1 µM; read-out: residual enzyme activity
Experimental: as §1

[19] = target: ZAK/MLTK (Homo sapiens, UniProt Q9NYL2); settings: read-out: residual enzyme activity
Experimental: as §1

[20] = target: LYN (Homo sapiens, UniProt P07948); settings: read-out: residual enzyme activity
Experimental: as §1

[21] = target: CAMK2G (Homo sapiens, UniProt Q13555); settings: read-out: residual enzyme activity
Experimental: as §1

[22] = target: DYRK4 (Homo sapiens, UniProt Q9NR20); settings: DYRK4, 1 µM; read-out: residual enzyme activity
Experimental: as §1

[23] = target: JNK1 (Homo sapiens, UniProt P45983); settings: JNK1, 1 µM; read-out: residual enzyme activity
Experimental: as §1

[24] = target: BTK (Homo sapiens, UniProt Q06187); settings: read-out: residual enzyme activity
Experimental: as §1

[25] = target: PASK (Homo sapiens, UniProt Q96RG2); settings: read-out: residual enzyme activity
Experimental: as §1

[26] = target: ITK (Homo sapiens, UniProt Q08881); settings: read-out: residual enzyme activity
Experimental: as §1

[27] = target: CAMKIG (Homo sapiens, UniProt Q96NX5); settings: read-out: residual enzyme activity
Experimental: as §1

[28] = target: CAMK2A (Homo sapiens, UniProt Q9UQM7); settings: read-out: residual enzyme activity
Experimental: as §1

[29] = target: GRK4 (Homo sapiens, UniProt P32298); settings: GRK4, 1 µM; read-out: residual enzyme activity
Experimental: as §1

[30] = target: TEC (Homo sapiens, UniProt P42680); settings: read-out: residual enzyme activity
Experimental: as §1

[31] = target: MUSK (Homo sapiens, UniProt O15146); settings: read-out: residual enzyme activity
Experimental: as §1

[32] = target: ERN2/IRE2 (Homo sapiens, UniProt Q76MJ5); settings: ERN2/IRE2, 1 µM; read-out: residual enzyme activity
Experimental: as §1

[33] = target: PHKG2 (Homo sapiens, UniProt P15735); settings: PHKg2, 1 µM; read-out: residual enzyme activity
Experimental: as §1

[34] = target: IKKB/IKBKB (Homo sapiens, UniProt O14920); settings: read-out: residual enzyme activity
Experimental: as §1

[35] = target: NLK (Homo sapiens, UniProt Q9UBE8); settings: read-out: residual enzyme activity
Experimental: as §1

MYO3B, sequence (Q8WXR4 whole entry, species assumed): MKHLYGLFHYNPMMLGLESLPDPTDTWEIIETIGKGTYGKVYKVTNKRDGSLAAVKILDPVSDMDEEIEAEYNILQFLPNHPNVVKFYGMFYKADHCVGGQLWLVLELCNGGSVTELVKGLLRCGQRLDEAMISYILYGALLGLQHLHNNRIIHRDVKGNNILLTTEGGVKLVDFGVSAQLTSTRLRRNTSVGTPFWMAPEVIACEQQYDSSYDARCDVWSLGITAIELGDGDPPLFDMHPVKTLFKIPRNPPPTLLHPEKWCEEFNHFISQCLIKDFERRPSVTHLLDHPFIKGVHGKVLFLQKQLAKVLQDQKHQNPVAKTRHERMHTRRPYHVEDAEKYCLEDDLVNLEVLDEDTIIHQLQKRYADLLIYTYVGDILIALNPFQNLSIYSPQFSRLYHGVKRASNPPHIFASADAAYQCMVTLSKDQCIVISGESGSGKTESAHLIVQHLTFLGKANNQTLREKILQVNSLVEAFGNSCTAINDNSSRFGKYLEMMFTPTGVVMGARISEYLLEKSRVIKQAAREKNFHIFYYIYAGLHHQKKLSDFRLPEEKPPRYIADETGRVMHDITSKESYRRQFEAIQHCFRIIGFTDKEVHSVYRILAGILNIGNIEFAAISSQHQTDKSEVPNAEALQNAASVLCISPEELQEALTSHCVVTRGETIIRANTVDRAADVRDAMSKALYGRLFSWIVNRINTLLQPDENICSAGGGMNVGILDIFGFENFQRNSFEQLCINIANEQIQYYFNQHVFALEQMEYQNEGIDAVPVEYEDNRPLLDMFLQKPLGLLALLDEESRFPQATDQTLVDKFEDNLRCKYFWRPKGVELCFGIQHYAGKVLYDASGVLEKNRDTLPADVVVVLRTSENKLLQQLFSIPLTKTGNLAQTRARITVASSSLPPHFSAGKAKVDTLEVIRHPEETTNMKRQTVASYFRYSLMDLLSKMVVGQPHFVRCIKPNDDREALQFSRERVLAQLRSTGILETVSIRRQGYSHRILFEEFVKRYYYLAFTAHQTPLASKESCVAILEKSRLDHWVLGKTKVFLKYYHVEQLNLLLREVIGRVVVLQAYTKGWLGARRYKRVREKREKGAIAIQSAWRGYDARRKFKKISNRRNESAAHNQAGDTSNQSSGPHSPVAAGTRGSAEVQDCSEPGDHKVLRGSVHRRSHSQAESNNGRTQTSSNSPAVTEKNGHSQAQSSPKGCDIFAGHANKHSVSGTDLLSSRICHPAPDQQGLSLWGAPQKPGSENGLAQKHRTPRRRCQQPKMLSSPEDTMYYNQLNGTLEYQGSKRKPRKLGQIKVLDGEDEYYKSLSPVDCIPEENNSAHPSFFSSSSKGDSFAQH
ERBB4/HER4, sequence (Q15303 26-1308): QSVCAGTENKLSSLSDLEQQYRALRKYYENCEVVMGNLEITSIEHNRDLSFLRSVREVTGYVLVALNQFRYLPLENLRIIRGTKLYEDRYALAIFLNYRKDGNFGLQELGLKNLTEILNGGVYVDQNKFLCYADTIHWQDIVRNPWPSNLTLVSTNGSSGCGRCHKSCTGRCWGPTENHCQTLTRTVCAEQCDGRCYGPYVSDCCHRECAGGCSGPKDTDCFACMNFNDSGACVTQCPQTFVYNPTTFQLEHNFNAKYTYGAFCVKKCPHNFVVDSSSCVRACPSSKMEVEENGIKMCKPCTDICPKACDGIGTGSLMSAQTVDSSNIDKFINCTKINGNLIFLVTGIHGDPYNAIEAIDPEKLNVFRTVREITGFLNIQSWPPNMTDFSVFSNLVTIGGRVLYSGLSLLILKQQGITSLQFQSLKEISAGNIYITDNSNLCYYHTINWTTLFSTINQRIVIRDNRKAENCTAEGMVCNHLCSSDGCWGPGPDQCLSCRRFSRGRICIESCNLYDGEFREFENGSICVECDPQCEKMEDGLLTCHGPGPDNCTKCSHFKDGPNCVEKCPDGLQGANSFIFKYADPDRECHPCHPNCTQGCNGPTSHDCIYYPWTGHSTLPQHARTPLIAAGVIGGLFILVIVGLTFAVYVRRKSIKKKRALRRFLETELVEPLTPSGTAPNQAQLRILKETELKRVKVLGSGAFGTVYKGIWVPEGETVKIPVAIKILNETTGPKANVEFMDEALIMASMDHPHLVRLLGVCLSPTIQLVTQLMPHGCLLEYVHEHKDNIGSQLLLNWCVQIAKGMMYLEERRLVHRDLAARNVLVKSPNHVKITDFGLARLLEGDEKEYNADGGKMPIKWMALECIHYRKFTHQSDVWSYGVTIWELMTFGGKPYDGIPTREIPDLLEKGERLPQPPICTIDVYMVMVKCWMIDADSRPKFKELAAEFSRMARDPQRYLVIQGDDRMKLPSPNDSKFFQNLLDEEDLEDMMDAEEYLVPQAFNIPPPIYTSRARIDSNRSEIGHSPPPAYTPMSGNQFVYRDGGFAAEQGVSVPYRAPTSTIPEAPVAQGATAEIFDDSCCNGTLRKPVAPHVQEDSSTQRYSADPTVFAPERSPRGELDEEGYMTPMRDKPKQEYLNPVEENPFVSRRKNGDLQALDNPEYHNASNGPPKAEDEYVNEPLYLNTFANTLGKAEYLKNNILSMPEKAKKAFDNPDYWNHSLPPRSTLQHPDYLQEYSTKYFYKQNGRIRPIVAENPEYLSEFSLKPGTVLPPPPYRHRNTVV
ITK, sequence (Q08881 whole entry, species assumed): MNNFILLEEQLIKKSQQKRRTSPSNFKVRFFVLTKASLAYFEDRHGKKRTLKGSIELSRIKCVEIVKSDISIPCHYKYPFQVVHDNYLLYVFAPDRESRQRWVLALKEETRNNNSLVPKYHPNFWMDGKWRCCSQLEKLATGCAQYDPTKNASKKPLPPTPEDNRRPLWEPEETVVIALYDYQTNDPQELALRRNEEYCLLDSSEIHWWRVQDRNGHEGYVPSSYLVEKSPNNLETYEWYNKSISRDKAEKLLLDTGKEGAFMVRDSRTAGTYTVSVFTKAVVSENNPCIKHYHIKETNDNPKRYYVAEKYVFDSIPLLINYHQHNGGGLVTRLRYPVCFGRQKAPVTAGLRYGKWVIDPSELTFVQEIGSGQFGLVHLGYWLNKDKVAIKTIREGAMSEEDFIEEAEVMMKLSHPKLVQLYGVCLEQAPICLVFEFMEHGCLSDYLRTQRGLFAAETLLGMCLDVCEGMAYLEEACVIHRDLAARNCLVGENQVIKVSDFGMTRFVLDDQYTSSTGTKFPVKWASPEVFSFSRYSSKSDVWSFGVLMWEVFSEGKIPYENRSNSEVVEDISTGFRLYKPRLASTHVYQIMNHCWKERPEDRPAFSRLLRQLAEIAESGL
NIM1, sequence (Q8IY84 whole entry, species assumed): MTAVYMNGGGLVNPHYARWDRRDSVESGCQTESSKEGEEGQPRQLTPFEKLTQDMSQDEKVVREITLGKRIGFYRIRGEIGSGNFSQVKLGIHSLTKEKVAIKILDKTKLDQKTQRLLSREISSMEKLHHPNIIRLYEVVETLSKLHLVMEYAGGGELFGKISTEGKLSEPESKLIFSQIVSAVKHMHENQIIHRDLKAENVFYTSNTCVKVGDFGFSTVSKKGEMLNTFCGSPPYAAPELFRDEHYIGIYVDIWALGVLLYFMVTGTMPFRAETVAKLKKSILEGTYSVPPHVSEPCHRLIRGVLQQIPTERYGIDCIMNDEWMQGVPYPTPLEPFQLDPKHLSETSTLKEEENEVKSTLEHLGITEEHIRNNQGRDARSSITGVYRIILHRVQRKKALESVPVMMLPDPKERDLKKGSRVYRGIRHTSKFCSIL
NLK, sequence (Q9UBE8 whole entry): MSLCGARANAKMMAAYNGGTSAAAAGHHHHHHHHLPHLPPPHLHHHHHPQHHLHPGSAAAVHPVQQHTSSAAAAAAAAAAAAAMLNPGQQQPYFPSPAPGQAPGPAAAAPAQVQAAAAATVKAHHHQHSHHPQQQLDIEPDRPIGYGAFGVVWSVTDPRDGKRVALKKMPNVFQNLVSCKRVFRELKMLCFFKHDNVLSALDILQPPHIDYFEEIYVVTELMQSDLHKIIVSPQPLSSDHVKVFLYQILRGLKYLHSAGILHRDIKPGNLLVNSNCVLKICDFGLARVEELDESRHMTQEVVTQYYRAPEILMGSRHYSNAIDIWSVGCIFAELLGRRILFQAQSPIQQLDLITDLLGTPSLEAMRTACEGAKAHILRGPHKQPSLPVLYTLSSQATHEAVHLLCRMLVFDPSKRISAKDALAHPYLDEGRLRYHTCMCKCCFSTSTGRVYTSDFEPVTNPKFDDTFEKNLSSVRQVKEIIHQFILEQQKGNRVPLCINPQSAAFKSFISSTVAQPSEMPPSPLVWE
BTK, sequence (Q06187 whole entry, species assumed): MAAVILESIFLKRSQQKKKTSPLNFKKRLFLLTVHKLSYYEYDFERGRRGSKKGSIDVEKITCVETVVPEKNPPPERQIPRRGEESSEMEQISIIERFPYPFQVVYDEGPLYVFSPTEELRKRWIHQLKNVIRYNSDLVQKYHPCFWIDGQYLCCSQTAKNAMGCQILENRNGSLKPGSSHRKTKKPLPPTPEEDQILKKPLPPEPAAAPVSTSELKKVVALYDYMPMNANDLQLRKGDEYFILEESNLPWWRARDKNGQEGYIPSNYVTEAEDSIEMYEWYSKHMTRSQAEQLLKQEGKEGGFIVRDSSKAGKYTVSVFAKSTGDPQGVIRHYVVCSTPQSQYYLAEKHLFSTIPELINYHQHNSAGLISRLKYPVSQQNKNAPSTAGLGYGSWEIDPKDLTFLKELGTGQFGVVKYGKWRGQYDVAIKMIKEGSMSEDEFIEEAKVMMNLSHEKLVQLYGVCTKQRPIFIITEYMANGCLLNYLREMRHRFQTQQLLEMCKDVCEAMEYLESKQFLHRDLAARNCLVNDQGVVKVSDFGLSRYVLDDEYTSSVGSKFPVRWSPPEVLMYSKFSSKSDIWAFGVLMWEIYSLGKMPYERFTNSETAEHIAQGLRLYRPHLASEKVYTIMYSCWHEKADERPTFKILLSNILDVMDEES

SMILES | remaining activity at 1 µM [1] | remaining activity at 1 µM [2] | remaining activity at 1 µM [3] | remaining activity at 1 µM [4] | remaining activity at 1 µM [5] | remaining activity at 1 µM [6] | remaining activity at 1 µM [7] | remaining activity at 1 µM [8] | remaining activity at 1 µM [10] | remaining activity at 1 µM [11] | remaining activity at 1 µM [12] | remaining activity at 1 µM [13] | remaining activity at 1 µM [14] | remaining activity at 1 µM [16] | remaining activity at 1 µM [17] | remaining activity at 1 µM [18] | remaining activity at 1 µM [19] | remaining activity at 1 µM [20] | remaining activity at 1 µM [22] | remaining activity at 1 µM [23] | also measured
Cc1ccc(Nc2ncc3c(n2)C2(CC2)C(=O)N(c2cc(NC(=O)c4cccc(C(F)(F)F)c4)ccc2C)C3)cn1 [Compound 51, N-(4-methyl-3-(2'-((6-methylpyridin-3-yl)amino)-7'-oxo-5'H-spiro[cyclopropane-1,8'-pyrido[4,3-d]pyrimidine]-6'(7'H)-yl)phenyl)-3-(trifluoromethyl)benzamide] | ≤ 40% | > 40% | > 40% | > 40% | > 40% | > 40% | > 40% | > 40% | > 40% | ≤ 40% | > 40% | > 40% | ≤ 40% | > 40% | > 40% | ≤ 40% | ≤ 40% | ≤ 40% | > 40% | ≤ 40% | remaining activity at 1 µM ([9]; MYO3b): > 40%; remaining activity at 1 µM ([15]; EPHA8, 1 µM): ≤ 40%; remaining activity at 1 µM ([21]; CAMK2g): > 40%; remaining activity at 1 µM [24]: ≤ 40%; remaining activity at 1 µM [25]: > 40%; remaining activity at 1 µM [26]: > 40%; remaining activity at 1 µM ([27]; CAMK1g): > 40%; remaining activity at 1 µM ([28]; CAMK2a): > 40%; remaining activity at 1 µM [29]: > 40%; remaining activity at 1 µM [30]: ≤ 40%; remaining activity at 1 µM [31]: ≤ 40%; remaining activity at 1 µM [32]: > 40%; remaining activity at 1 µM [33]: > 40%; remaining activity at 1 µM [34]: > 40%; remaining activity at 1 µM [35]: > 40%
Cc1cn(-c2cc(C(=O)Nc3ccc(C)c(N4Cc5cnc(NC6CC6)nc5C5(CC5)C4=O)c3)cc(C(F)(F)F)c2)cn1 [Compound 8, N-(3-(2'-(cyclopropylamino)-7'-oxo-5'H-spiro[cyclopropane-1,8'-pyrido[4,3-d]pyrimidine]-6'(7'H)-yl)-4-methylphenyl)-3-(4-methyl-1H-imidazol-1-yl)-5-(trifluoromethyl)benzamide] | ≤ 40% | > 40% | > 40% | > 40% | > 40% | > 40% | > 40% | > 40% | > 40% | ≤ 40% | > 40% | > 40% | ≤ 40% | > 40% | > 40% | ≤ 40% | ≤ 40% | ≤ 40% | > 40% | > 40% | remaining activity at 1 µM ([9]; MYO3B): > 40%; remaining activity at 1 µM ([15]; EPHAS (row 110), 1 µM): ≤ 40%; remaining activity at 1 µM ([21]; CAMK2G): > 40%; remaining activity at 1 µM [24]: ≤ 40%; remaining activity at 1 µM [25]: > 40%; remaining activity at 1 µM [26]: > 40%; remaining activity at 1 µM ([27]; CAMKIG): > 40%; remaining activity at 1 µM ([28]; CAMK2A): > 40%; remaining activity at 1 µM [29]: > 40%; remaining activity at 1 µM [30]: ≤ 40%; remaining activity at 1 µM [31]: ≤ 40%; remaining activity at 1 µM [32]: > 40%; remaining activity at 1 µM [33]: > 40%; remaining activity at 1 µM [34]: > 40%; remaining activity at 1 µM [35]: > 40%
